This note sets out measurements from patent US6734179B2, “Benzothiazoles” (Hoffmann-La Roche Inc., priority 2001, dated 2004).

Data set [1] has as its target T1, human adenosine A2A receptor (Homo sapiens, UniProt P29274).
T1 construct: expressed in transfected cells; host or cells: CHO cells, semliki forest virus expression system; membrane preparation
Put plainly: [3H]-SCH-58261 binding assay, human adenosine A2A receptor expressed in CHO cell membranes (SPA). The conditions noted are these: [3H]-SCH-58261 1 nM, Ki by Cheng-Prussoff equation, read-out: hA2 (pKi) (converted). As for the experimental part: Human Adenosine A2A Receptor
The human adenosine A2A receptor was recombinantly expressed in chinese hamster ovary (CHO) cells using the semliki forest virus expression system. Cells were harvested, washed twice by centrifugation, homogenised and again washed by centrifugation. The final washed membrane pellet was suspended in a Tris (50 mM) buffer containing 120 mM NaCl, 5 mM KCl, 2 mM CaCl2 and 10 mM MgCl2 (pH 7.4) (buffer A). The [^3H]-SCH-58261 (Dionisotti et al., 1997, Br J Pharmacol 121, 353; 1 nM) binding assay was carried out in 96-well plates in the presence of 2.5 μg of membrane protein, 0.5 mg of Ysi-poly-1-lysine SPA beads and 0.1 U adenosine deaminase in a final volume of 200 μl of buffer A. Non-specific binding was defined using xanthine amine congener (XAC; 2 μM). Compounds were tested at 10 concentrations from 10 μM-0.3 nM. All assays were conducted in duplicate and repeated at least two times. Assay plates were incubated for 1 hour at room temperature before centrifugation and then bound ligand determined using a Packard Topcount scintillation counter. IC50 values were calculated using a non-linear curve fitting program and Ki values calculated using the Cheng-Prussoff equation.

T1 sequence (P29274 whole entry): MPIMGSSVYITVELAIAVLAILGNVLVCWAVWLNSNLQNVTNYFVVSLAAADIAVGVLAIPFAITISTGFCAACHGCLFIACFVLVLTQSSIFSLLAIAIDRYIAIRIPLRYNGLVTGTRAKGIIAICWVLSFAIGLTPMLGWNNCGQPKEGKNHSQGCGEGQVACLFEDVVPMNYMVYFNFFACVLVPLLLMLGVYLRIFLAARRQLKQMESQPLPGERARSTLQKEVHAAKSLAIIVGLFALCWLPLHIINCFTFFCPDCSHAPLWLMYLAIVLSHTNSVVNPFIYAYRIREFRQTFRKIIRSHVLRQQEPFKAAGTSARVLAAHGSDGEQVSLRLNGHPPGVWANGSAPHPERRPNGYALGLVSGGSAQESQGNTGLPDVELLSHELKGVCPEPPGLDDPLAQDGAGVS

For the molecule `COc1ccc(C2CCOCC2)c2sc(NC(=O)N3CCC(O)CC3)nc12` [Example 45, 4-Hydroxy-piperidine-1-carboxylic acid [4-methoxy-7-(tetrahydro-pyran-4-yl)-benzothiazol-2-yl]-amide], the melting point (as a rule, the temperature of the solid-liquid transition) fell in the range of 106 to 109 °C. In addition, in data set [1], the Ki was 1.62 nM.
